What was measured:
Details in all cases: 48 h
SEM cells [1] = experiment: cell viability relative to DMSO control; higher = less cytotoxic
Method in brief: (§1)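 Cells were incubated for 48 h at 37°C before CellTiter-Glo One luminescence was read. The cells were NOMO1 or SEM (500 cells/well) or P12-Ichikawa (1000 cells/well) leukemia cells, adapted for at least four passages in each medium and seeded in 1536-well plates (5 μl). Dosing used library compounds in DMSO applied by pin over 11 threefold points, 47 μM to 0.79 nM. Viability is the per-plate percentage of DMSO wells, with cell-free wells as background.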

NOMO1 [2] = experiment: as above
Method in brief: as §1

P12-Ichikawa [3] = experiment: as above
Method in brief: as §1

SEM cells [4] = experiment: AUC of viability dose-response curve (% viability x log10 dose units); higher = less sensitive
Method in brief: (§2)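 In 1536-well plates, leukemia cells adapted to each medium (500 or 1000 cells/well) were exposed for 48 h at 37°C to library compounds in DMSO across 11 threefold doses, 47 μM down to 0.79 nM. Viability was read by CellTiter-Glo One luminescence and normalised per plate to DMSO and cell-free wells. A four-parameter log-logistic fit over log10 doses was integrated by trapezoidal rule. This yielded the area under the curve, with over-full-viability curves scaled and quality-control failures dropped.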

NOMO1 [5] = experiment: as above
Method in brief: as §2

P12-Ichikawa [6] = experiment: as above
Method in brief: as §2

COC(=O)Nc1ccc(-c2nc(N3CCOCC3)c3cnn(C4CCN(Cc5cccnc5)CC4)c3n2)cc1
cell viability [%]
Details	NOMO1 [2]	P12-Ichikawa [3]	SEM cells [1]
HPLM + 10% dialyzed FBS, 0.000781 µM	117	113	86.4
HPLM + 10% dialyzed FBS, 0.00234 µM	117	117	98
HPLM + 10% dialyzed FBS, 0.00702 µM	132	112	99
HPLM + 10% dialyzed FBS, 0.0211 µM	108	113	92.5
HPLM + 10% dialyzed FBS, 0.0632 µM	88.6	109	93.5
HPLM + 10% dialyzed FBS, 0.19 µM	76.4	96.2	57.9
HPLM + 10% dialyzed FBS, 0.569 µM	70.3	83.5	46.6
HPLM + 10% dialyzed FBS, 1.71 µM	70.6	83.6	50.9
HPLM + 10% dialyzed FBS, 5.12 µM	26.3	51.1	21.4
HPLM + 10% dialyzed FBS, 15.4 µM	19.4	31.9	10.6
HPLM + 10% dialyzed FBS, 46.1 µM	9.7	12.9	7.36
RPMI 5 mM glucose + 10% FBS, 0.000781 µM	106	106	119
RPMI 5 mM glucose + 10% FBS, 0.00234 µM	117	111	98
RPMI 5 mM glucose + 10% FBS, 0.00702 µM	119	102	85.5
RPMI 5 mM glucose + 10% FBS, 0.0211 µM	105	103	99.9
RPMI 5 mM glucose + 10% FBS, 0.0632 µM	110	98.3	75.4
RPMI 5 mM glucose + 10% FBS, 0.19 µM	92.4	69.9	54.2
RPMI 5 mM glucose + 10% FBS, 0.569 µM	88.7	61	33.3
RPMI 5 mM glucose + 10% FBS, 1.71 µM	82.6	61.4	35.9
RPMI 5 mM glucose + 10% FBS, 5.12 µM	45.4	43.1	4.31
RPMI 5 mM glucose + 10% FBS, 15.4 µM	32.4	32.4	2.26
RPMI 5 mM glucose + 10% FBS, 46.1 µM	17.6	24.7	3.9
RPMI 5 mM glucose + 10% dialyzed FBS, 0.000781 µM	–	113	125
RPMI 5 mM glucose + 10% dialyzed FBS, 0.00234 µM	–	118	128
RPMI 5 mM glucose + 10% dialyzed FBS, 0.00702 µM	–	114	112
RPMI 5 mM glucose + 10% dialyzed FBS, 0.0211 µM	–	116	105
RPMI 5 mM glucose + 10% dialyzed FBS, 0.0632 µM	–	100	89.9
RPMI 5 mM glucose + 10% dialyzed FBS, 0.19 µM	–	72.3	67.8
RPMI 5 mM glucose + 10% dialyzed FBS, 0.569 µM	–	65.2	43.7
RPMI 5 mM glucose + 10% dialyzed FBS, 1.71 µM	–	59.8	40.3
RPMI 5 mM glucose + 10% dialyzed FBS, 5.12 µM	–	53.1	6.29
RPMI 5 mM glucose + 10% dialyzed FBS, 15.4 µM	–	43.5	3.11
RPMI 5 mM glucose + 10% dialyzed FBS, 46.1 µM	–	6.49	4.53

AUC of viability dose-response curve
Details	NOMO1 [5]	P12-Ichikawa [6]	SEM cells [4]
HPLM + 10% dialyzed FBS	298	355	292
RPMI 5 mM glucose + 10% FBS	361	323	242
RPMI 5 mM glucose + 10% dialyzed FBS	319	314	249

O=P1(N(CCCl)CCCl)NCCCO1 (centres undefined)
cell viability [%]
Details	NOMO1 [2]	P12-Ichikawa [3]	SEM cells [1]
HPLM + 10% dialyzed FBS, 0.000781 µM	134	112	113
HPLM + 10% dialyzed FBS, 0.00234 µM	106	113	104
HPLM + 10% dialyzed FBS, 0.00702 µM	108	115	96.5
HPLM + 10% dialyzed FBS, 0.0211 µM	115	113	110
HPLM + 10% dialyzed FBS, 0.0632 µM	101	106	110
HPLM + 10% dialyzed FBS, 0.19 µM	112	109	114
HPLM + 10% dialyzed FBS, 0.569 µM	122	101	92.8
HPLM + 10% dialyzed FBS, 1.71 µM	120	106	111
HPLM + 10% dialyzed FBS, 5.12 µM	97.6	98.1	84.8
HPLM + 10% dialyzed FBS, 15.4 µM	91	16.5	29.5
HPLM + 10% dialyzed FBS, 46.1 µM	75.7	6.1	17.9
RPMI 5 mM glucose + 10% FBS, 0.000781 µM	108	112	–
RPMI 5 mM glucose + 10% FBS, 0.00234 µM	98.4	113	–
RPMI 5 mM glucose + 10% FBS, 0.00702 µM	110	109	–
RPMI 5 mM glucose + 10% FBS, 0.0211 µM	99.7	113	–
RPMI 5 mM glucose + 10% FBS, 0.0632 µM	102	108	–
RPMI 5 mM glucose + 10% FBS, 0.19 µM	103	113	–
RPMI 5 mM glucose + 10% FBS, 0.569 µM	97.8	112	–
RPMI 5 mM glucose + 10% FBS, 1.71 µM	87.3	102	–
RPMI 5 mM glucose + 10% FBS, 5.12 µM	91.4	101	–
RPMI 5 mM glucose + 10% FBS, 15.4 µM	50.5	51.8	–
RPMI 5 mM glucose + 10% FBS, 46.1 µM	47.5	8.07	–
RPMI 5 mM glucose + 10% dialyzed FBS, 0.000781 µM	85.1	115	96.6
RPMI 5 mM glucose + 10% dialyzed FBS, 0.00234 µM	110	109	95.6
RPMI 5 mM glucose + 10% dialyzed FBS, 0.00702 µM	99.7	106	98.6
RPMI 5 mM glucose + 10% dialyzed FBS, 0.0211 µM	119	102	119
RPMI 5 mM glucose + 10% dialyzed FBS, 0.0632 µM	119	107	99.7
RPMI 5 mM glucose + 10% dialyzed FBS, 0.19 µM	112	117	102
RPMI 5 mM glucose + 10% dialyzed FBS, 0.569 µM	103	108	109
RPMI 5 mM glucose + 10% dialyzed FBS, 1.71 µM	110	101	84
RPMI 5 mM glucose + 10% dialyzed FBS, 5.12 µM	84.9	101	80.5
RPMI 5 mM glucose + 10% dialyzed FBS, 15.4 µM	54	90	20.2
RPMI 5 mM glucose + 10% dialyzed FBS, 46.1 µM	50.7	17.3	11.4

AUC of viability dose-response curve
Details	NOMO1 [5]	P12-Ichikawa [6]	SEM cells [4]
HPLM + 10% dialyzed FBS	416	409	413
RPMI 5 mM glucose + 10% FBS	436	424	405
RPMI 5 mM glucose + 10% dialyzed FBS	430	448	406
